The source made the active and inactive calls. No cut-off for these calls is given here.
Key:
DNA [1] = assay: Binding affinity to dsDNA (unknown origin) assessed as DNA intercalation by measuring change in fluorescence intensity by fluorescence-based screening assay; format: nucleic-acid assay
MALAT1 triple helix RNA [2] = assay: Binding affinity to MALAT1 triple helix RNA (unknown origin) by fluorescence-based screening assay; format: nucleic-acid assay
MCF7 = assay: Cytotoxicity against human MCF7 cells assessed as cell viability incubated for 48 hrs; format: functional, cell-based; settings: MCF7, 48 h
DNA [3] = assay: Binding affinity to dsDNA (unknown origin) by fluorescence-based screening assay; format: nucleic-acid assay
MALAT1 triple helix RNA [4] = assay: Binding affinity to MALAT1 triple helix RNA (unknown origin) assessed as RNA intercalation by measuring change in fluorescence intensity by fluorescence-based screening assay; format: nucleic-acid assay
MALAT1 triple helix RNA [5] = assay: Binding affinity to MALAT1 triple helix RNA (unknown origin) assessed as […] by measuring conformational change at 2.5 to 5.0 uM at 25 to 65 degreeC by temperature dependent CD analysis; format: nucleic-acid assay; settings: dose 2.5-5 µM
SK-OV-3 = assay: Cytotoxicity against human SK-OV-3 cells; format: functional, cell-based
HeLa = assay: Cytotoxicity against human HeLa cells; format: functional, cell-based
L929 = assay: Cytotoxicity against mouse L929 cells; format: toxicity, cell-based

| Compound | deltaFI (DNA [1]) | EC50 (MALAT1 triple helix RNA [2]) [nM] | other results |
| --- | --- | --- | --- |
| N#Cc1ccc(Cn2c(=O)c3ccccc3n3c(=O)c4ccccc4nc23)cc1 | 0.172 |  |  |
| O=c1c2ccccc2n2c(=O)c3ccccc3nc2n1Cc1ccc([N+](=O)[O-])cc1 | 0.079 |  |  |
| N=C(N)c1ccc(-c2ccc(-c3ccc(C(=N)N)cc3)o2)cc1 [FURAMIDINE] |  | 600 | IC50 (MCF7): 90000 nM |
| O=c1c2ccccc2n2c(=O)c3ccccc3nc2n1Cc1ccc(OC(F)(F)F)cc1 | 0.29 |  |  |
| O=c1c2ccccc2n2c(=O)c3ccccc3nc2n1CCCn1c(=O)c2ccccc2n2c(=O)c3ccccc3nc12 | 1 | 1100 | EC50 (DNA [3]): 1400 nM; deltaFI (MALAT1 triple helix RNA [4]): 1; Activity (MALAT1 triple helix RNA [5]): Active; IC50 (SK-OV-3): 8000 nM; IC50 (HeLa): 63200 nM; Activity (L929): Non-toxic |
| O=c1c2ccccc2n2c(=O)c3ccccc3nc2n1Cc1cccc2ccccc12 | 0.014 |  |  |
| COC(=O)c1ccc(Cn2c(=O)c3ccccc3n3c(=O)c4ccccc4nc23)cc1 | 0.426 |  |  |
| O=c1c2ccccc2n2c(=O)c3ccccc3nc2n1-c1ccc(C(F)(F)F)cc1 | 0.084 |  |  |
| O=c1c2ccccc2n2c(=O)c3ccccc3nc2n1Cc1cccc(C(F)(F)F)c1 | 0.76 | 800 | EC50 (DNA [3]): 1000 nM; deltaFI (MALAT1 triple helix RNA [4]): 0.504 |
| COc1cccc2c1C(=O)c1c(O)c3c(c(O)c1C2=O)C[C@@](O)(C(=O)CO)C[C@@H]3O[C@H]1C[C@H](N)[C@H](O)[C@H](C)O1 [DOXORUBICIN] |  |  | IC50 (SK-OV-3): 534 nM |
